Laboratory results published in patent US11524968B2, “Heterocyclic compound as a protein kinase inhibitor” (HK inno.N Corporation, priority 2017, dated 2022).

The molecules below were run against JAK1 (Homo sapiens (Human), UniProt P23458) (assay: Analysis of JAK1 activity inhibition ability (ADP-Glo Kinase Assay)). Details: JAK1 enzyme, ADP-Glo luminescence, ATP 250 uM, IRS-itide substrate, 30° C. 40 minutes; read-out: IC50.
Assay type: biochemical
Summary of the method: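 JAK1 enzyme, IRS-itide substrate (40 ng/mL) and 250 uM ATP, both as prepared in kinase buffer (Tris-HCl pH 7.5, MgCl2, BSA, DTT), reacted with compound 40 min at 30 °C. ADP formed was detected by ADP-Glo luminescence; IC50 is the concentration giving 50% inhibition versus control.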

Chain of JAK1 (P23458 whole entry): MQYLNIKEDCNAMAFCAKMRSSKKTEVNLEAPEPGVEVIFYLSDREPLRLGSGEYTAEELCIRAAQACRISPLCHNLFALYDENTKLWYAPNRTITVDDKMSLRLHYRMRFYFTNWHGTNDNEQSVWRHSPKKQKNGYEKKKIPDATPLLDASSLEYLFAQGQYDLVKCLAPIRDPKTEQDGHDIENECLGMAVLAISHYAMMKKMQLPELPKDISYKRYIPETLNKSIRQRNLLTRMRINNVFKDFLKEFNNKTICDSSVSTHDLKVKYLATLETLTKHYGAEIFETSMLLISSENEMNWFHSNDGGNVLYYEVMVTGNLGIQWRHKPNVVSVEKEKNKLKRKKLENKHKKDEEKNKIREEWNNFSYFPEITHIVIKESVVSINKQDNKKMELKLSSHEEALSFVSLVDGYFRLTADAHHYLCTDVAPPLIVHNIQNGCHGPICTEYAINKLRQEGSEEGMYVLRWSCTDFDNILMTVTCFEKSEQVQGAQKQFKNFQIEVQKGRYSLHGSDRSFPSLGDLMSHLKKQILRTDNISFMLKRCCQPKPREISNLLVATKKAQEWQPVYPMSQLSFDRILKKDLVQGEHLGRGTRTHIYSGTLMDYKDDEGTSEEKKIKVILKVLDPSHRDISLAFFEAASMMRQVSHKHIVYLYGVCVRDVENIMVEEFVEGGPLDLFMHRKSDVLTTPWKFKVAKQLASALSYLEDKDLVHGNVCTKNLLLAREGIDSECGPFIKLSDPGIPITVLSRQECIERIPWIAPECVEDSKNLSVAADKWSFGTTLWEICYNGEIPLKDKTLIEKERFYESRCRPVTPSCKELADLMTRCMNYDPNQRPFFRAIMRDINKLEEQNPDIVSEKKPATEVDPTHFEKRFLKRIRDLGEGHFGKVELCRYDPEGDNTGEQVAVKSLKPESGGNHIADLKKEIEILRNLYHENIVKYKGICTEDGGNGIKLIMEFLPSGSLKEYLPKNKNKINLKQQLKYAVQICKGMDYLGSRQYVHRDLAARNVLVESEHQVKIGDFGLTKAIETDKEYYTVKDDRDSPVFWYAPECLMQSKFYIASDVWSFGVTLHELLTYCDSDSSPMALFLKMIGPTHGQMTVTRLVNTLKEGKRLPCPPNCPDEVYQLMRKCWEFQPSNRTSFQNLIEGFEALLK

| SMILES | IC50 [nM] |
| --- | --- |
| CCS(=O)(=O)Nc1ccc(-c2nc(Nc3ccccc3)nc3[nH]ccc23)cc1 [Example 720, N-(4-(2-(phenylamino)-7H-pyrrolo[2,3-d]pyrimidin-4-yl)phenyl)ethanesulfonamide] | 20 to 200 |
| CCCC(=O)Nc1cc(-c2ccc(NS(=O)(=O)CC)c(F)c2)c2cc[nH]c2n1 [Example 712, N-(4-(4-(ethylsulfonamido)-3-fluorophenyl)-1H-pyrrolo[2,3-b]pyridin-6-yl)butyramide] | > 200 |
| N#CC1COCCN1C(=O)Cc1ccc(-c2cc(NC(=O)C3CC3)nc3[nH]ccc23)cc1 (stereo not drawn) [Example 576, N-(4-(4-(2-(3-cyanomorpholino)-2-oxoethyl)phenyl)-1H-pyrrolo[2,3-b]pyridin-6-yl)cyclopropanecarboxamide] | 20 to 200 |
| CC1CN(C(=O)c2ccc3c(c2)OCO3)CC=C1c1cc(NC(=O)C2CC2)nc2[nH]ccc12 (stereo not drawn) [Example 326, N-(4-(1-(benzo[d][1,3]dioxole-5-carbonyl)-3-methyl-1,2,3,6-tetrahydropyridin-4-yl)-1H-pyrrolo[2,3-b]pyridin-6-yl)cyclopropanecarboxamide] | 20 to 200 |
| CCCS(=O)(=O)Nc1ccc(-c2cc(NC(=O)C3CC3)nc3[nH]ccc23)nc1F [Example 150, N-(4-(6-fluoro-5-(propylsulfonamido)pyridin-2-yl)-1H-pyrrolo[2,3-b]pyridin-6-yl)cyclopropanecarboxamide] | > 200 |
| CCCS(=O)(=O)N1C2C=C(c3cc(NC(=O)C4CC4)nc4[nH]ccc34)CC1CC2 (stereo not drawn) [Example 176, N-(4-(8-(propylsulfonyl)-8-azabicyclo[3.2.1]oct-2-en-3-yl)-1H-pyrrolo[2,3-b]pyridin-6-yl)cyclopropanecarboxamide] | 20 to 200 |
| O=C(Nc1cc(C2=CC3CCCC(C2)N3C(=O)c2cccc(Br)c2)c2cc[nH]c2n1)C1CC1 (stereo not drawn) [Example 371, N-(4-(9-(3-bromobenzoyl)-9-azabicyclo[3.3.1]non-2-en-3-yl)-1H-pyrrolo[2,3-b]pyridin-6-yl)cyclopropanecarboxamide] | 20 to 200 |
| CC(C)(C)OC(=O)N1C=C(c2cc(NC(=O)C3CC3)nc3[nH]ccc23)CCC1 [Example 459, tert-butyl 5-(6-(cyclopropanecarboxamido)-1H-pyrrolo[2,3-b]pyridin-4-yl)-3,4-dihydropyridine-1 (2H)-carboxylate] | > 200 |
| O=C(Nc1cc(-c2ccc(NS(=O)(=O)c3ccc(F)c(F)c3)cc2C(F)(F)F)c2cc[nH]c2n1)C1CC1 [Example 121, N-(4-(4-((3,4-difluorophenyl)sulfonamido)-2-(trifluoromethyl)phenyl)-1H-pyrrolo[2,3-b]pyridin-6-yl)cyclopropanecarboxamide] | 20 to 200 |
| CC1CN(C(=O)c2cccc(Br)n2)CC=C1c1cc(NC(=O)C2CC2)nc2[nH]ccc12 (stereo not drawn) [Example 337, N-(4-(1-(6-bromopicolinoyl)-3-methyl-1,2,3,6-tetrahydropyridin-4-yl)-1H-pyrrolo[2,3-b]pyridin-6-yl)cyclopropanecarboxamide] | 20 to 200 |
| CCNC(=S)N1C2CCC1CC(c1cc(NC(=O)C3CC3)nc3[nH]ccc13)C2 (stereo not drawn) [Example 657, N-(4-(8-(ethylcarbamothioyl)-8-azabicyclo[3.2.1]octan-3-yl)-1H-pyrrolo[2,3-b]pyridin-6-yl)cyclopropanecarboxamide] | 20 to 200 |
| O=C(Nc1cc(-c2ccc(NS(=O)(=O)c3ccc4c(c3)OCCO4)cc2)c2cc[nH]c2n1)C1CC1 [Example 38, N-(4-(4-((2,3-dihydrobenzo[b][1,4]dioxine)-6-sulfonamido)phenyl)-1H-pyrrolo[2,3-b]pyridin-6-yl)cyclopropanecarboxamide] | 20 to 200 |
| O=C(Nc1cc(-c2ccc(CC(=O)N3CCS(=O)(=O)CC3)c(F)c2)c2cc[nH]c2n1)C1CC1 [Example 559, N-(4-(4-(2-(1,1-dioxidothiomorpholino)-2-oxoethyl)-3-fluorophenyl)-1H-pyrrolo[2,3-b]pyridin-6-yl)cyclopropanecarboxamide] | 20 to 200 |
| O=C(Nc1cc(-c2ccc(C(=O)N3CCS(=O)(=O)CC3)cc2)c2cc[nH]c2n1)C1CC1 [Example 520, N-(4-(4-(1,1-dioxidothiomorpholine-4-carbonyl)phenyl)-1H-pyrrolo[2,3-b]pyridin-6-yl)cyclopropanecarboxamide] | > 200 |
| CCCCC(=O)N1C2CCC1CC(c1cc(NC(=O)C3CC3)nc3[nH]ccc13)C2 (stereo not drawn) [Example 651, N-(4-(8-pentanoyl-8-azabicyclo[3.2.1]octan-3-yl)-1H-pyrrolo[2,3-b]pyridin-6-yl)cyclopropanecarboxamide] | > 200 |

Second part, the molecule after the results:

| IC50 [nM] | SMILES |
| --- | --- |
| < 20 | N#CCCCS(=O)(=O)NC1CC=C(c2cc(NC(=O)C3CC3)nc3[nH]ccc23)CC1 (stereo not drawn) [Example 158, N-(4-(4-((3-cyanopropyl)sulfonamido)cyclohex-1-en-1-yl)-1H-pyrrolo[2,3-b]pyridin-6-yl)cyclopropanecarboxamide] |
| > 200 | CC(=O)N1CCN(C(=O)Cc2ccc(-c3cc(NC(=O)C4CC4)nc4[nH]ccc34)cc2)CC1 [Example 543, N-(4-(4-(2-(4-acetylpiperazin-1-yl)-2-oxoethyl)phenyl)-1H-pyrrolo[2,3-b]pyridin-6-yl)cyclopropanecarboxamide] |
| 20 to 200 | CCCS(=O)(=O)Nc1ccc(-c2cc(NC(=O)C3CC3)nc3[nH]cc(C)c23)cc1 [Example 94, N-(3-methyl-4-(4-(propylsulfonamido)phenyl)-1H-pyrrolo[2,3-b]pyridin-6-yl)cyclopropanecarboxamide] |
| 20 to 200 | CC1CN(C(=O)Cc2cccs2)CC=C1c1cc(NC(=O)C2CC2)nc2[nH]ccc12 (stereo not drawn) [Example 345, N-(4-(3-methyl-1-(2-(thiophen-2-yl)acetyl)-1,2,3,6-tetrahydropyridin-4-yl)-1H-pyrrolo[2,3-b]pyridin-6-yl)cyclopropanecarboxamide] |
| 20 to 200 | Cc1ccc(S(=O)(=O)Nc2ccc(-c3cc(NC(=O)C4CC4)nc4[nH]ccc34)cc2)cc1 [Example 27, N-(4-(4-((4-methylphenyl)sulfonamido)phenyl)-1H-pyrrolo[2,3-b]pyridin-6-yl)cyclopropanecarboxamide] |
| < 20 | C=CCS(=O)(=O)Oc1ccc(-c2cc(NC(=O)C3CC3)nc3[nH]ccc23)cc1 [Example 636, 4-(6-(cyclopropanecarboxamido)-1H-pyrrolo[2,3-b]pyridin-4-yl)phenyl prop-2-ene-1-sulfonate] |
| 20 to 200 | O=C(Nc1cc(C2=CCN(C(=O)C(F)(F)F)CC2)c2cc[nH]c2n1)C1CC1 [Example 272, N-(4-(1-(2,2,2-trifluoroacetyl)-1,2,3,6-tetrahydropyridin-4-yl)-1H-pyrrolo[2,3-b]pyridin-6-yl)cyclopropanecarboxamide] |
| > 200 | CCCCNC(=S)Nc1ccc(-c2cc(NC(=O)C3CC3)nc3[nH]ccc23)cc1 [Example 463, N-(4-(4-(3-butylthioureido)phenyl)-1H-pyrrolo[2,3-b]pyridin-6-yl)cyclopropanecarboxamide] |
| < 20 | CCC1CC(c2cc(NC(=O)C3CC3)nc3[nH]ccc23)=CCN1C(=O)CC#N (stereo not drawn) [Example 413, N-(4-(1-(2-cyanoacetyl)-2-ethyl-1,2,3,6-tetrahydropyridin-4-yl)-1H-pyrrolo[2,3-b]pyridin-6-yl)cyclopropanecarboxamide] |
| < 20 | O=C(Nc1cc(-c2ccc(NS(=O)(=O)CC3CCCCC3)cc2)c2cc[nH]c2n1)C1CC1 [Example 47, N-(4-(4-((cyclohexylmethyl)sulfonamido)phenyl)-1H-pyrrolo[2,3-b]pyridin-6-yl)cyclopropanecarboxamide] |
| 20 to 200 | N#CCC(=O)N1CC(n2cc(-c3cc(NC(=O)C4CC4)nc4[nH]ccc34)cn2)C1 [Example 610, N-(4-(1-(1-(2-cyanoacetyl)azetidin-3-yl)-1H-pyrazol-4-yl)-1H-pyrrolo[2,3-b]pyridin-6-yl)cyclopropanecarboxamide] |
| 20 to 200 | CCS(=O)(=O)N1CCN(C(=O)Cc2ccc(-c3cc(NC(=O)C4CC4)nc4[nH]ccc34)cc2)CC1 [Example 563, N-(4-(4-(2-(4-(ethylsulfonyl)piperazin-1-yl)-2-oxoethyl)phenyl)-1H-pyrrolo[2,3-b]pyridin-6-yl)cyclopropanecarboxamide] |
| > 200 | CN(C)CC(=O)N1CC=C(c2cc(NC(=O)C3CC3)nc3[nH]ccc23)CC1 [Example 281, N-(4-(1-(dimethylglycyl)-1,2,3,6-tetrahydropyridin-4-yl)-1H-pyrrolo[2,3-b]pyridin-6-yl)cyclopropanecarboxamide] |
| < 20 | CC1CC1C(=O)Nc1cc(-c2ccc(CN3CCS(=O)(=O)CC3)cc2)c2cc[nH]c2n1 (stereo not drawn) [Example 588, N-(4-(4-((1,1-dioxidothiomorpholino)methyl)phenyl)-1H-pyrrolo[2,3-b]pyridin-6-yl)-2-methylcyclopropane-1-carboxamide] |
| < 20 | C[C@@H]1CN(C(=O)CC2(C#N)CCCCC2)CC=C1c1cc(NC(=O)C2CC2)nc2[nH]ccc12 [Example 406, (S)—N-(4-(1-(2-(1-cyanocyclohexyl)acetyl)-3-methyl-1,2,3,6-tetrahydropyridin-4-yl)-1H-pyrrolo[2,3-b]pyridin-6-yl)cyclopropanecarboxamide] |
| 20 to 200 | CC1CN(C(=O)c2ccc([N+](=O)[O-])cc2)CC=C1c1cc(NC(=O)C2CC2)nc2[nH]ccc12 (stereo not drawn) [Example 331, N-(4-(3-methyl-1-(4-nitrobenzoyl)-1,2,3,6-tetrahydropyridin-4-yl)-1H-pyrrolo[2,3-b]pyridin-6-yl)cyclopropanecarboxamide] |
| 20 to 200 | CNS(=O)(=O)Cc1ccc(-c2cc(NC(=O)C3CC3)nc3[nH]ccc23)cc1 [Example 533, N-(4-(4-((N-methylsulfamoyl)methyl)phenyl)-1H-pyrrolo[2,3-b]pyridin-6-yl)cyclopropanecarboxamide] |
| 20 to 200 | Cn1cncc1S(=O)(=O)Nc1ccc(-c2cc(NC(=O)C3CC3)nc3[nH]ccc23)cc1 [Example 15, N-(4-(4-((1-methyl-1H-imidazole)-5-sulfonamido)phenyl)-1H-pyrrolo[2,3-b]pyridin-6-yl)cyclopropanecarboxamide] |
